# Measured values as given in patent US20210017607A1, “Methods of Predicting Responsiveness to Cancer Therapies” (The University of Chicago, priority 2019, published 2021).
# Test system: single cell suspensions derived from Myc-CAP (STING^lo) tumors
# Test: Ex vivo reconstitution assay, IFNβ ELISA
# Format: cell-based, mouse
# Conditions: for IFNβ production within supernatants: ex vivo drug treatment, 36 hours
# Description: FIGS. 15A-15E. Differential STING pathway activation within B6-Myc (STING^hi) cell lines and BMDMs relative to Myc-CAP (STING^lo) cells. (15A, 15B) The indicated cancer cell lines and BMDMs were treated with DMXAA (mouse STING agonist) for 1 and 24 hours, respectively, and protein extracts were interrogated for cGAS/STING pathway activation with the indicated antibodies by Western blotting. Supernatants were collected from for IFNβ1 ELISA following 36 hours of treatment with DMXAA (15C, 15D). (15E) Syngeneic Myc-CAP (STING^lo) tumors were processed into single cell suspensions and used for phycoerythrin-based sorting of CD45+ cellular fractions. Equal numbers of cells from these fractions were stimulated with DMXAA. Supernatants were collected at 36 hrs for detection of IFNB1 by ELISA; n=3 independent experiments; Significance/p-values were calculated by one-way Anova (for 15C & 15E) or paired t-test (for 15D); TAM=tumor associated macrophage; s.e.=short exposure; l.e.=long exposure.
# FIGS. 29A-29M. PARPi alone induces DNA DSBs, but not apoptosis even in combination with PI3Ki in Myc-CAP (STING^lo) cancer cells; PARPi/PI3Ki combination induces intracellular DNA DSBs and proportionate release of MV surface-associated DNA DSBs from B6-Myc (STINGhi) cancer cells without affecting cellular viability; PARPi/PI3K treatment activates tumor-cell extrinsic cGAS/STING pathway within TAMs in vivo via MV surface-associated DNA DSBs released from tumor cells. Myc-CAP cancer cells were treated with the indicated drugs singly or in combination for 36 hours. (29A) Cells were stained with anti-mouse specific p-γH2AX antibody and a fluorescently labeled secondary antibody for determination of DNA DSBs, which were quantified by confocal microscopy. (29B) Protein extracts from cells in 29A were analyzed for the indicated pharmacodynamic biomarkers by western blotting; (29C) Annexin V-PI staining was done to assess frequency of live cells (Annexin V^− PI^−) following drug treatment. (29D) Ultracentrifugation was utilized to purify microvesicles (MVs) from supernatants in treatment groups in (29A) and associated DNA DSBs was quantified by Nanodrop®. Independent experiments n=2. (29E) Ultracentrifugation was utilized to purify MVs from supernatants in indicated treatment groups in FIG. 17A, and associated DNA DSBs were quantified by Nanodrop®; n=2 independent experiments. (29F) Syngeneic mice were engrafted with Myc-CAP (STING^lo) cells, and tumors were harvested when the tumor volume reached 400 mm^3. Single cell suspensions of the tumors were treated with the indicated drug(s), in the presence or absence of GW4869 (MV biogenesis inhibitor). (29G) Bone marrow derived macrophage (BMDMs) were co-cultured for 30 hours with supernatants (−/+ exogenous 50 units of DNase I pre-treatment for 30 minutes) from Myc-CAP cells that were treated with the indicated drug(s) for 36 hours. (29H) cGAMP (10 μg/mL) was pre-incubated with 10 units of DNAse I or mock control for 30 minutes and then added to BMDMs for 30 hours. (29I-29L) STING^+/+/STING^−/− BMDMs were co-cultured for 36 hours with supernatants from Myc-CAP and B6-Myc cancer cells that were treated with the indicated drug(s) for 36 hours. Supernatants were collected from 29F-29L at the end of treatment and analyzed for IFNβ1 by ELISA. […] Tumor volume was recorded daily for duration of experiment. […] Significance/p-values were calculated by one-way ANOVA. […]
Compound,IFN-β response within the CD45-negative tumor cell fraction (ex vivo DMXAA treatment),fold increase in IFN-β levels within the TME (ex vivo DMXAA treatment) [fold],IFNβ production within supernatants
"Cc1ccc2c(=O)c3cccc(CC(=O)O)c3oc2c1C [DMXAA, 5,6-Dimethylxanthenone-4-acetic Acid]",lack of response,11.4,–
Nc1cc(C(F)(F)F)c(-c2cc(N3CCOCC3)nc(N3CCOCC3)n2)cn1 [buparlisib],–,–,not observed
CNCc1ccc(-c2[nH]c3cc(F)cc4c3c2CCNC4=O)cc1 [rucaparib],–,–,not observed
